Measurements reported in patent publication US7390892B2, “Nucleic acids encoding novel cyclic GMP dependent protein kinases from Elmeria maxima” (Merial Limited, priority 2001, dated 2008).
Values after ≈ are worked out from the molar mass of the structure shown. Values joined by “and” are separate entries in the source; they are usually repeats but may differ in a detail not shown here. Equal entries are not always repeated.

Columns and labels:
[1] = target: T1, Native P. falciparum PKG (Plasmodium falciparum, UniProt Q8I719); test: PKG catalytic assay, native P. falciparum PKG; type: biochemical
T1 construct: endogenous in cells; host or cells: P. falciparum NF54, schizont/trophozoite-enriched cultures in human erythrocytes; MonoQ then 8-AET-cGMP-agarose
Description: The NF54 strain of P. falciparum was grown in 5% human O+ red blood cells in RPMI 1640 media supplemented with 10% heat-inactivated human serum and 3% hypoxanthine using modifications of standard conditions (Trager and Jensen, 1976, Science 193, 673-675). Media was changed daily and parasites were diluted into fresh erythrocytes to a parasitemia of 0.2-0.5% every 3 to 4 days; final parasitemia ranged from 4 to 10%. Synchronized cultures (Lambros and Vanderberg, 1979, J. Parasitology 65, 418-420) enriched for schizont and trophozoite stages were prepared in a continuous Percoll gradient (Rivadeneira et al, 1983 J. Protozoology 30, 367-370). […]
A linear NaCl gradient was applied (0-500 mM in 3ml @ 100 ul/min) and 100 ul fractions were collected and assayed for PKG enzyme activity. […] The purification of P. falciparum PKG was monitored by Western blot analysis using a commercially available antipeptide antisera directed at a conserved PKG peptide (Calbiochem Cat. No. 539729). • (v) PKG Catalytic Assay
(§1) Kinase activity was detected using a peptide substrate and [γ-^33P]-ATP. […] In both cases filters were washed with 75 mM phosphoric acid, dried and ^33P-labelled phosphopeptide was detected by liquid scintillation counting.

[2] = test system: P. berghei; test: Parasitemia in mice infected with P. berghei; type: in vivo; conditions: Balb C mice, individual mice 1-5
Description: Balb C mice were infected intra-peritoneally with 1×10^6 P. berghei parasites in red blood cells. Two hours later twice daily intra-peritoneal treatment began with L-167645 in 10% DMSO. In the experiments described within, five animals were dosed with 75 milligrams compound per kilogram body weight (mpk) and received two treatments for one day. Five additional mice were dosed at 50 mpk and received two treatments daily for five days. Five control mice were dosed with an equivalent volume of 10% DMSO twice daily for 5 days. Parasite burden was measured by counting infected red blood cells as a function of total red blood cells (% parasitemia) and was performed periodically; -parasitemia on day 8 post-infection are tabulated below.

[3] = test system: Mixed-species field isolate of Eimeria DP-968 (E. maxima, E. acervulina, E. mitis, E. tenella); test: Chicken battery experiment, mixed-species Eimeria field isolate DP-968; type: in vivo; conditions: chickens, field isolate DP-968, 125 ppm in feed
Source text: (§2) Chicken battery experiments have also been conducted to evaluate L-167645 efficacy against mixed-species field isolates of Eimeria. The Eimeria cultures were obtained from grower farms in major broiler-producing states. Two of these field isolates, DP-924 and DP-968, contained E. maxima parasites. Each treatment group consisted of one pen of three one-week old White Leghorn chickens. Animals were placed on medicated feed at doses of L-167645 ranging from 25 to 150 ppm for the duration of the study. After 48 hrs, birds were infected by oral gavage with a total of 1×10^5 sporulated oocysts.

[4] = test system: E. maxima; test: Efficacy against E. maxima in infected chickens (oocyst counts); type: in vivo; conditions: 125 ppm in the feed, terminated on day 8
Description: Several studies have been conducted to evaluate the efficacy of […] against E. maxima in infected chickens. For efficacy studies against E. maxima alone, L-167645 was administered in the feed at doses from 25 to 150 ppm starting on day one. Birds were infected with 3.5×10^3 E. maxima sporalated oocysts on day 2 and medicated feed was continuously available at the respective doses for the duration of the study. The experiment was terminated on day 8, intestines were removed and homogenized and compound efficacy was estimated by performing oocyst counts.

[5] = test system: C. parvum; test: In vitro tissue culture based assay with C. parvum; type: cell-based
[6] = test system: Mixed-species field isolate of Eimeria DP-924 (E. maxima, E. acervulina, E. mitis); test: Chicken battery experiment, mixed-species Eimeria field isolate DP-924; type: in vivo; conditions: chickens, field isolate DP-924, 125 ppm in feed
Source text: as §2

[7] = target: Recombinant E. maxima PKG (Eimeria maxima, UniProt Q8MMZ5); test: PKG catalytic assay, recombinant E. maxima PKG; type: biochemical
Source text: T. gondii was selected as a host cell for recombinant expression of functional E. maxima PKG enzyme. An Eimeria maxima cDNA encoding the PKG open reading frame (ORF) was modified prior to subcloning for expression by appending either an N-terminal or C-terminal FLAG epitope for detection purposes via PCR amplification. DNA fragments encoding FLAG-epitope tagged PKGs were then placed in a T. gondii expression vector under the control of a Toxoplasma α-tubulin promoter (Soldati and Boothroyd, 1993, Science 260, 349-352). The vector encodes bacterial chloramphenicol acetyltransferase (CAT) as a selectable marker for transfection.
T. gondii tachyzoites of the RH strain were maintained by serial passage in primary human foreskin fibroblast cultures (HFF). Host cells were grown in Dulbecco's modified Eagle's medium with 10% heat-inactivated newborn bovine serum. […]
Recombinant FLAG-tagged E. maxima PKG was purified from T. gondii lysates by FLAG immuno-affinity chromatography. […] Protein was measured with a micro BCA reagent (Pierce), using a TCA/sodium deoxycholate step (Brown et al, 1989, Analytical Biochemistry 180, 136-139) to remove residual FLAG peptide prior to quantitation. […]
as §1

[8] = target: Native E. maxima PKG (Eimeria maxima, UniProt Q8MMZ5); test: PKG catalytic assay, native E. maxima PKG; type: biochemical
Description: E. maxima unsporulated oocysts were harvested from the ceca of chickens seven days after infection with sporulated oocysts and purified using standard methods (Schmatz et al, 1986, J. Protozoology 33, 109-114). Soluble extracts were prepared by vortexing 2×10^9 E. maxima unsporulated oocysts with an equal volume of buffer (10 mM HEPES pH 7.4, 1 mM sodium orthovanadate, 20% glycerol, 0.1 mg/ml Bacitracin and 0.5% Sigma protease inhibitor cocktail P8340), and an equal volume of […] glass beads for 20 minutes. The resulting homogenate was centrifuged (100,000×g, 1 hour) and the supernatant (S100) collected. Native E. maxima PKG activity in the S100 fraction was affinity purified using an 8-AET-cGMP-agarose matrix as described below. • (iv) Isolation and Characterization of Native PKG from P. falciparum
Kinase activity was detected using a peptide substrate and [γ-^33P]-ATP. An aliquot containing the respective enzyme preparations was combined with a reaction mixture (10 μl) whose composition is as follows: 25 mM HEPES pH 7.4, 10 mM MgCl2, 20 mM beta-glycerophosphate, 5 mM beta-mercaptoethanol, 10 μM cGMP, 1 mg/ml BSA, 400 μM Kemptide, 2 μM [γ-^33P]ATP (0.1 mCi/ml). […] In both cases filters were washed with 75 mM phosphoric acid, dried and ^33P-labelled phosphopeptide was detected by liquid scintillation counting.

[9] = test system: Plasmodium falciparum; test: PFAIV assay: tritiated hypoxanthine incorporation into parasitized red blood cells; type: cell-based; conditions: Erythrocyte, in vitro cell culture, 48 hours, [3H]-hypoxanthine incorporation, read-out: concentration of compound required to inhibit growth by 50% (IC50)
Description: The PFAIV assay is an in vitro assay designed to identify potential inhibitors of P. falciparum by measuring the incorporation of tritiated hypoxanthine into parasitized red blood cells.
The following method is an adaptation of the method described by Desjardins, R. E. et al, 1979. AAC Vol 16, p710-718:
1. Sixty microliters of a solution of RPMI 1640 media plus gentamycin (1:100 dilution) containing the desired concentration of test compound is added to the wells of a 96-well plate. (For titrations, 120 microliters is added to the top well and the compounds are serially diluted into 60 microliters of media.)
2. Fifty three microliters of parasitized red blood cells is added to the wells. The parasitemia of the culture is approximately 2-3% and the hematocrit is 5%. The red blood cells are diluted in RPMI 1640 media containing 20% human A+ serum and gentamycin.
3. Twelve microliters of RPMI1640 media containing 200 uCi [^3H] - hypoxanthine is added to each well.
4. The plates are incubated at 37° C. for 48 hours under […] (candle jar). After incubation, the plates are frozen overnight (for safety), then thawed and harvested using a manual 96-well harvester onto UNIFILTER GF/B plates.
5. The plates are counted on a Wallac instrument and % inhibition of parasite growth is determined as compared to control wells containing no compound.

CN1CCC(c2cc(-c3ccncc3)c(-c3ccc(F)cc3)[nH]2)CC1 [L-167645, 4-[2-(4-fluorophenyl)-5-(1-methylpiperidine4-yl)-1H-pyrrol-3-yl]pyridine]
IC50 [1]: 8.53 nM
% parasitemia 8 days post-infection ([2]; 50 mpk intra-peritoneal, twice daily for five days, 50 mg/kg): 0% (2×) and 1% (2×) and 3%
% parasitemia 8 days post-infection ([2]; 75 mpk intra-peritoneal, two treatments for one day, 75 mg/kg): 3% and 4% and 1% (2×) and Dead
% Reduction in Oocyst Counts [3]: 86%
Relative % Weight Gain [3]: 94%
reduction in oocyst counts [4]: greater than 99%
inhibition of parasitic growth [5]: effective in inhibiting parasitic growth
% Reduction in Oocyst Counts [6]: 97%
Relative % Weight Gain [6]: 108%
IC50 [7]: 4.2 nM
IC50 [8]: 4.6 nM
IC50 [9]: 2.2 µg/mL (≈ 6.56 µM)
